# Experiments:
# [1] = test system: maternal Snrpn-EGFP MEFs; assay: High content screening / concentration response of Snrpn-EGFP unsilencing; type: cell-based, mouse; details: mS-EGFP/p+ MEFs
# Procedure: High content screenings of small molecules were performed as described in Huang, et al. Nature 481, 185-189 (2012). HCS comprises a 384-well high-content screen using primary mouse embryonic fibroblasts (MEFs) from m^S-EGFP/p^+, and searched for drug-like molecules that could unsilence the maternal S-EFGP allele. […] To perform the screen, primary MEFs were isolated from E12.5-14.5 embryos of m^S-EGFP/p^+ and cultured for 7 days in Dulbecco's modified Eagle's media supplemented with 10% fetal bovine serum, 100 Units/mL penicillin and 100 μg/mL streptomycin, at 37° C. and 5% CO2. One day before treatment with small molecules, 5,000 cells per well were plated onto 384-well plates. The cells were then treated with compounds (10 μM for 72 hours) from multiple small molecule libraries (FIG. 1f and FIG. 2). In total, 9,157 small molecules were screened in quadruplicate, normalizing values to vehicle-treatment (0.2% DMSO) (Table 1). The unsilencing of Snrpn-EGFP was determined three days after drug treatment. The immunofluorescence-processed fibroblasts were imaged for Hoechst and Alexa Fluor 488 fluorescence using a BD Pathway 855 high content imaging microscope. Antibody-enhanced Snrpn-EGPF fluorescence intensity was determined in drug-treated cells individually and normalized to cells treated with vehicle control. In order to identify potentially active compounds, an arbitrary cutoff of 125% was used where 100% indicates basal fluorescence in the vehicle-treated MEFs. Analysis was performed using Cell Profiler with custom macro and algorithms. Potential active drugs were defined as the increase in drug-mediated EGFP fluorescence consistently observed across quadruplicate wells and minimal or no cytotoxicity measured by Hoechst-stained nuclear structure (and the changes in total number of cells). After initial validation of all potential active drugs (e.g., to determine whether active compounds show inherent fluorescence, the wild-type fibroblasts were also treated), only effective hit compounds further validated in dose-response tests to determine relative efficacy (Emax) and potency (EC50). The dose-response results were analyzed by using Graphpad Prism (Graphpad Software). The calculated EC50 values (potencies) and estimated Emax (efficacy, Y-value top plateau) enabled comparative analyses of the relative potency and efficacy of the identified compounds.
# Three days after drug treatment, the cells were fixed at 4% paraformaldehyde at room temperature for 10 min, followed by rinsing with 1× PBS. The cells were permeabilized with 0.5% Triton X-100 in 1× PBS at room temperature for 10 min, followed by blocking with 5% normal goat serum in 0.1% Triton X-100 in 1× PBS at room temperature for 30 minutes. Primary rabbit anti-GFP antibody (1:1000, Novus Biologicals cat. no. NB100-1770) was incubated at 4° C. overnight. The next day, the cells were rinsed with 1× PBS and incubated with goat anti-rabbit Alexa Fluor 488 (Invitrogen cat. no. A-11008) and Hoechst at room temperature. One hour after incubation, the cells were rinsed with 1× PBS and imaged for Hoechst and Alexa Fluor 488 fluorescence using a BD Pathway 855 high content imaging microscope.
# It is not feasible to design a screen for noncoding RNA. Alternatively, SNRPN/Snprn is paternally expressed but maternally silenced in all human and mouse tissues. The allele-specific expression of human SNRPN is regulated by the PWS-IC, which also controls the expression of host transcripts for SnoRNAs, including the SNORD116 cluster between SNRPN and UBE3A. see Le Meur, E. et al., Dev. Biol. 286, 587-600 (2005). Thus, the Snrpn-EGFP fusion protein (hereafter S-EGFP) was used as a marker for high content screening (HCS). It was determined that small molecules that can unsilence S-EGFP would also be effective in reactivating the host transcript of SNORD116. […]
# [2] = test system: PWS-IC; assay: Bisulfite genomic sequencing of PWS-IC, human PWS cells; type: cell-based
# Procedure: Genomic DNA was isolated from human PWS fibroblasts or mouse tissues. DNA (1 μg) was then treated by bisulfite using the Epi-Tect bisulfite kit (Qiagen), and 125 ng input DNA was used per PCR amplification. PCR products were sub-cloned into pGEM-T easy vector (Promega) and an average of 15 clones were sequenced. DNA sequencing results were analyzed using BISMA web-based analysis platform with a setting for individual clones with <95% bisulfite conversion and <90% sequence identity to be excluded in the analysis.
# [3] = test system: human PWS fibroblasts; assay: Chromatin immunoprecipitation (ChIP-qPCR) of H3K9me2/H3K9me3; type: cell-based; details: in words
# Procedure: Histone methylations on the SNRPN locus in human fibroblasts were analyzed by chromatin immunoprecipitation assay (ChIP) using the protocol as previously reported (see Fulmer-Smentek et al., Human molecular genetics 10, 645-652 (2001)). ChIP assay was performed using ChIP-IT Express magnetic kit (Active Motif) according to the manufacturer's instructions with modification for the fixation and reverse-crosslinking steps. Briefly, native chromatin was prepared without fixation and enzymatic digestions to average 150-500 bp sized chromatin. 20 μg of chromatin was added to the specific antibodies (2 μg) or species control isotype antibodies for each immunoprecipitation reaction. The antibody-chromatin complexes were bound to protein G magnetic beads for recovering chromatin immunoprecipitates. RNase- and proteinase K-treated DNA was purified using PCR purification columns (Promega). DNA recovery was quantified by real time PCR performed on the LightCycler480 instrument (Roche) using SsoAdvanced Universal SYBR green Supermix (Biorad). Antibodies were anti-rabbit acetylated H3 (Millipore 06-599), anti-mouse monoclonal Histone H3 dimethyl K9 (Abcam 1220) and Histone H3 trimethyl K9 (Millipore, 07-442) antibodies. qPCR reactions were performed with the following cycling parameters: at 95° C./5 min followed by 40 cycles of 95° C./30 sec, 60° C./60 sec. Data was normalized to the total input.
Structure (SMILES),activation of S-EGFP [1],DNA methylation of the PWS-IC [2],level of H3K9me2 (and H3K9me3) in the PWS-IC [3]
"CCCC(CCC)C(=O)O [valproic acid, reference compound]",did not have an effect,–,–
"COc1cc2nc(N3CCCN(C)CC3)nc(NC3CCN(Cc4ccccc4)CC3)c2cc1OC [BIX01294, reference compound]",did not have a substantial effect,–,–
"C[S+](CC[C@H](N)C(=O)O)C[C@H]1O[C@@H](n2cnc3c(N)ncnc32)[C@H](O)[C@@H]1O (some centres unmarked) [S-adenosyl-methionine, reference compound]",did not have an effect,–,–
"O=C(CCCCCCC(=O)Nc1ccccc1)NO [vorinostat, suberoylanilide hydroxamic acid, reference compound]",did not have an effect,–,–
"Nc1ncn([C@H]2C[C@H](O)[C@@H](CO)O2)c(=O)n1 [5-Aza-dC, 5-aza deoxycytidine, reference compound]",–,significantly decreased,reduced
"CC(/C=C/C(=O)NO)=C\[C@@H](C)C(=O)c1ccc(N(C)C)cc1 [trichostatin A, reference compound]",did not have an effect,–,–
"Nc1ccccc1NC(=O)c1ccc(CNC(=O)OCc2cccnc2)cc1 [entinostat, reference compound]",did not have an effect,–,–

# From patent publication US11278550B2, “Compositions and methods for the treatment of Prader-Willi syndrome” (Duke University, priority 2016, dated 2022)
